ChEMBL document CHEMBL1143234, “Uncovering false positives on a virtual screening search for cruzain inhibitors” (Bioorg Med Chem Lett, 2008)
The source made the active and inactive calls. No cut-off for these calls is given here.

Tests used:
[1] = target: Cruzipain (Trypanosoma cruzi) (UniProt P25779); assay: Inhibition of Trypanosoma cruzi cruzain upto 38.71 mM
[2] = target: Cruzipain (Trypanosoma cruzi) (UniProt P25779); assay: Inhibition of Trypanosoma cruzi cruzain
[3] = target: Cruzipain (Trypanosoma cruzi) (UniProt P25779); assay: Inhibition of Trypanosoma cruzi cruzain upto 0.67 mM
[4] = target: Cruzipain (Trypanosoma cruzi) (UniProt P25779); assay: Inhibition of Trypanosoma cruzi cruzain upto 7.22 mM

Cruzipain (Trypanosoma cruzi), sequence (P25779 123-467 limits assumed): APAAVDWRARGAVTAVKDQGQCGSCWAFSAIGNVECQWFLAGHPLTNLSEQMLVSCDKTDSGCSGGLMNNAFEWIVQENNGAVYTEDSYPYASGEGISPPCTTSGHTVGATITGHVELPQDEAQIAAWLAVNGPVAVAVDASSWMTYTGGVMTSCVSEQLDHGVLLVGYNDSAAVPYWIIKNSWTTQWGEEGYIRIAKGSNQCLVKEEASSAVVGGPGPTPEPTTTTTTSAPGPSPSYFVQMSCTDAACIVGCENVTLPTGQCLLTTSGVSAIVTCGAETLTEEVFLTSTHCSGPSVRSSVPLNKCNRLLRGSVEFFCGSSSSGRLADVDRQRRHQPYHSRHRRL

Compound	Activity [2]	other results
N#Cc1ccsc1NC(=O)/C=C/c1cccc(Cl)c1	–	Activity [1]: inactive
N#Cc1ccccc1NC(=O)C(=O)Nc1ccccc1C#N	17.3 µM	–
O=C(/C=C/c1cccs1)NC(Cc1ccccc1)c1nc2ccccc2[nH]1 (stereo unspecified)	44.9 µM	–
O=C(NC(Cc1c[nH]c2ccccc12)C(=O)N/N=C1\CCCN1)c1cccs1 (stereo unspecified)	–	Activity [3]: inactive
N#CC1(NC(=O)c2cc3ccccc3oc2=O)CCCCC1	–	Activity [4]: inactive
N#Cc1c(NC(=O)CC(NC(=O)c2ccccc2Cl)c2ccccc2)sc2c1CCCC2 (stereo unspecified)	4.17 µM	–
